Laboratory results taken from patent US20050026911A1, “Benzotriazapinone salts and methods for using same” (priority 2003, published 2005).

Biological target: T1, gastrin (CCK2) receptors (Rattus norvegicus, UniProt P30553)
T1 construct: The stomach was excised and flushed with ca. 1 ml of unbuffered physiological saline solution; from tissue; host or cells: isolated whole stomach of immature rats (ca. 21 days old)
T1 sequence (P30553 1-452): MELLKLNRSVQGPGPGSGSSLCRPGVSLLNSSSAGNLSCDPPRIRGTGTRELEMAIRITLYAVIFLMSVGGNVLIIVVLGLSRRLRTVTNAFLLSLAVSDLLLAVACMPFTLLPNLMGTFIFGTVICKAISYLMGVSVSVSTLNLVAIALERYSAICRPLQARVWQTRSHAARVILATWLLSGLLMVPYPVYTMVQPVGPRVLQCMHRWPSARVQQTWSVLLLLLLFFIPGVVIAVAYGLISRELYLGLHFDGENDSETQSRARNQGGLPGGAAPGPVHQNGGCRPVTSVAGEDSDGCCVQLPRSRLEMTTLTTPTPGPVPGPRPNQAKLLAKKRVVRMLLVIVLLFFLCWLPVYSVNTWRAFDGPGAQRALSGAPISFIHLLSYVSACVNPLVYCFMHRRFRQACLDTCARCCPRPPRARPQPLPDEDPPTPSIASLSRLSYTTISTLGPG
Experiment: gastrin (CCK2) antagonist activity in an immature rat stomach assay
Conditions: pentagastrin dose-response curves, acid secretion, read-out: pKB rat stomach (converted)
Experimental: The compounds of the examples were tested for gastrin (CCK2) antagonist activity in an immature rat stomach assay. The procedure was as follows:
The oesophagus of immature rats (33-50 g, ca. 21 days old) was ligated at the level of the cardiac sphincter and the duodenal sphincter was cannulated. The stomach was excised and flushed with ca. 1 ml of unbuffered physiological saline solution. The fundus was punctured and cannulated. A further 4-5 ml of unbuffered solution was flushed through the stomach to ensure the preparation was not leaking. […] The stomach was continuously perfused at a rate of 1 ml min^−1 with unbuffered solution gassed with 100% O2 with the perfusate passing over an internally referenced pH-electrode fixed 12 cm above the stomach.
After 120 min of stabilisation the drugs were added directly to the serosal solution in the organ bath and after a further 60 min cumulative pentagastrin dose-response curves were started.

Row | Structure (SMILES) | Kb [nM]
1 | CNc1cccc(NC(=O)CN2N=C(C3CCCCC3)c3ccccc3N(CC(=O)N3CCN(C)CC3)C2=O)c1 [Example 72, 2-{5-Cyclohexyl-1-[2-(4-methyl-piperazin-1-yl)-2-oxo-ethyl]-2-oxo-1,2-dihydro-3H-1,3,4-benzotriazepin-3-yl}-N-(3-methylamino-phenyl)-acetamide] | 263
2 | CC(C)(C)C(=O)CN1C(=O)N(CC(=O)Nc2cccc(-c3ccc(C(=O)O)cc3)c2)N=C(C2CCCCC2)c2ccccc21 [Example 146, 3′-{2-[5-Cyclohexyl-1-(3,3-dimethyl-2-oxo-butyl)-2-oxo-1,2-dihydro-3H-1,3,4-benzotriazepin-3-yl]-acetylamino}-biphenyl-4-carboxylic acid] | 7.08
3 | COC(=O)c1cccc(NC(=O)CN2N=C(C3CCCCC3)c3ccccc3N(CC(=O)C(C)(C)C)C2=O)c1 [Example 1, 3-{2-[5-Cyclohexyl-1-(3,3-dimethyl-2-oxo-butyl)-2-oxo-1,2-dihydro-3H-1,3,4-benzotriazepin-3-yl]-acetylamino}-benzoic acid methyl ester] | 2.82
4 | CC(C)(C)C(=O)CN1C(=O)N(CC(=O)Nc2cccc(-c3ccc(C(=O)O)o3)c2)N=C(C2CCCCC2)c2ccccc21 [Example 145, 5-(3-{2-[5-Cyclohexyl-1-(3,3-dimethyl-2-oxo-butyl)-2-oxo-1,2-dihydro-3H-1,3,4-benzotriazepin-3-yl]-acetylamino}-phenyl)-furan-2-carboxylic acid] | 3.39
5 | CC(C)(C)C(=O)CN1C(=O)N(CC(=O)Nc2ccc3ccn(Cc4nnn[nH]4)c3c2)N=C(C2CCCCC2)c2ccccc21 [Example 131, 2-[5-Cyclohexyl-1-(3,3-dimethyl-2-oxo-butyl)-2-oxo-1,2-dihydro-3H-1,3,4-benzotriazepin-3-yl]-N-[1-(1H-tetrazol-5-ylmethyl)-1H-indol-6-yl]-acetamide] | 1.62
6 | CNc1cccc(NC(=O)CN2N=C(c3ccccc3)c3ccccc3N(CC(=O)C(C)(C)C)C2=O)c1 [Example 4, 2-[1-(3,3-Dimethyl-2-oxo-butyl)-2-oxo-5-phenyl-1,2-dihydro-3H-1,3,4-benzotriazepin-3-yl]-N-(3-methylamino-phenyl)-acetamide] | 132
7 | CC(C)(C)C(=O)CN1C(=O)N(CC(=O)Nc2ccc3ncn(CC(=O)O)c3c2)N=C(C2CCCCC2)c2ccccc21 [Example 94, (6-{2-[5-Cyclohexyl-1-(3,3-dimethyl-2-oxo-butyl)-2-oxo-1,2-dihydro-3H-1,3,4-benzotriazepin-3-yl]-acetylamino)-benzimidazol-1-yl)-acetic acid] | 155
8 | CC(C)CCN1C(=O)N(CC(=O)Nc2cccc(C(=O)O)c2)N=C(C2CCCCC2)c2ccccc21 [Example 16, 3-{2-[5-Cyclohexyl-1-(3-methyl-butyl)-2-oxo-1,2-dihydro-3H-1,3,4-benzotriazepin-3-yl]-acetylamino}-benzoic acid] | 42.7
9 | O=C(O)Cc1cccc(NC(=O)CN2N=C(C3CCCCC3)c3ccccc3N(CC(=O)C3CCCCC3)C2=O)c1 [Example 80, (3-{2-[5-Cyclohexyl-1-(2-cyclohexyl-2-oxo-ethyl)-2-oxo-1,2-dihydro-3H-1,3,4-benzotriazepin-3-yl]-acetylamino}-phenyl)-acetic acid] | 3.39
10 | CC(C)(C)C(=O)CN1C(=O)N(CC(=O)Nc2cccc(/C=C/C(=O)O)c2)N=C(C2CCCCC2)c2ccccc21 [Example 60, 3-(3-{2-[5-Cyclohexyl-1-(3,3-dimethyl-2-oxo-butyl)-2-oxo-1,2-dihydro-3H-1,3,4-benzotriazepin-3-yl]-acetylamino}-phenyl)-acrylic acid] | 3.47
11 | CC(C)(C)OC(=O)CN1C(=O)N(CC(=O)Nc2cccc(C(=O)O)c2)N=C(C2CCCCC2)c2ccccc21 [Example 95, 3-[2-(1-tert-Butoxycarbonylmethyl-5-cyclohexyl-2-oxo-1,2-dihydro-3H-1,3,4-benzotriazepin-3-yl)-acetylamino]-benzoic acid] | 3.98
12 | CC(C)(C)C(=O)CN1C(=O)N(CC(=O)Nc2cccc(Cc3nnn[nH]3)c2)N=C(C2CCCCC2)c2ccccc21 [Example 67, 2-[5-Cyclohexyl-1-(3,3-dimethyl-2-oxo-butyl)-2-oxo-1,2-dihydro-3H-1,3,4-benzotriazepin-3-yl]-N-[3-(1H-tetrazol-5-ylmethyl)-phenyl]-acetamide] | 77.6
13 | CC(C)(C)C(=O)CN1C(=O)N(CC(=O)Nc2cccc(-c3ccccc3C(=O)O)c2)N=C(C2CCCCC2)c2ccccc21 [Example 154, 3′-{2-[5-Cyclohexyl-1-(3,3-dimethyl-2-oxo-butyl)-2-oxo-1,2-dihydro-3H-1,3,4-benzotriazepin-3-yl]-acetylamino}-biphenyl-2-carboxylic acid] | 3.24
14 | CC(C)(C)C(=O)CN1C(=O)N(CC(=O)Nc2cccc(NC(=O)CCC(=O)O)c2)N=C(C2CCCCC2)c2ccccc21 [Example 66, N-(3-{2-[5-Cyclohexyl-1-(3,3-dimethyl-2-oxo-butyl)-2-oxo-1,2-dihydro-3H-1,3,4-benzotriazepin-3-yl]-acetylamino}-phenyl)-succinamic acid] | 74.1
15 | CC(C)(C)C(=O)CN1C(=O)N(CC(=O)Nc2cccc(-c3ccc(C(=O)O)s3)c2)N=C(C2CCCCC2)c2ccccc21 [Example 157, 5-(3-{2-[5-Cyclohexyl-1-(3,3-dimethyl-2-oxo-butyl)-2-oxo-1,2-dihydro-3H-1,3,4-benzotriazepin-3-yl]-acetylamino}-phenyl)-thiophene-2-carboxylic acid] | 7.76
16 | CC(C)(C)C(=O)CN1C(=O)N(CC(=O)Nc2cccc(C(=O)O)c2)N=C(C2CCCC2)c2ccccc21 [Example 9, 3-{2-[5-Cyclopentyl-1-(3,3-dimethyl-2-oxo-butyl)-2-oxo-1,2-dihydro-3H-1,3,4-benzotriazepin-3-yl]-acetylamino}-benzoic acid] | 75.9
17 | CC(C)(C)C(=O)CN1C(=O)N(CC(=O)Nc2cccc(NS(C)(=O)=O)c2)N=C(C2CCCCC2)c2ccccc21 [Example 26, 2-[5-Cyclohexyl-1-(3,3-dimethyl-2-oxo-butyl)-2-oxo-1,2-dihydro-3H-1,3,4-benzotriazepin-3-yl]-N-(3-methanesulfonylamino-phenyl)-acetamide] | 457
18 | O=C(CN1N=C(C2CCCCC2)c2ccccc2N(CC(=O)C2CCCC2)C1=O)Nc1cccc(-c2ccc(C(=O)O)o2)c1 [Example 149] | 1.1
19 | CC(C)(C)C(=O)CN1C(=O)N(CC(=O)Nc2cccc(C(=O)O)c2)N=C(C23CC4CC(CC(C4)C2)C3)c2ccccc21 [Example 54, 3-{2-[5-Adamantan-1-yl-1-(3,3-dimethyl-2-oxo-butyl)2-oxo-1,2-dihydro-3H-1,3,4-benzotriazepin-3-yl]-acetylamino}-benzoic acid] | 17
20 | CNc1cccc(NC(=O)CN2N=C(C3CCCC3)c3ccccc3N(CC(=O)C(C)(C)C)C2=O)c1 [Example 11, 2-[5-Cyclopentyl-1-(3,3-dimethyl-2-oxo-butyl)-2-oxo-1,2-dihydro-3H-1,3,4-benzotriazepin-3-yl]-N-(3-methylaminophenyl)-acetamide] | 44.7
21 | CNc1cccc(NC(=O)CN2N=C(CC(C)C)c3ccccc3N(CC(=O)C(C)(C)C)C2=O)c1 [Example 13, 2-[1-(3,3-Dimethyl-2-oxo-butyl)-5-isobutyl-2-oxo-1,2-dihydro-3H-1,3,4-benzotriazepin-3-yl]-N-(3-methylaminophenyl)-acetamide] | 51.3
22 | CNc1nc(-c2cccc(NC(=O)CN3N=C(C4CCCCC4)c4ccccc4N(CC(=O)C(C)(C)C)C3=O)c2)cs1 [Example 150, 2-[5-Cyclohexyl-1-(3,3-dimethyl-2-oxo-butyl)-2-oxo-1,2-dihydro-3H-1,3,4-benzotriazepin-3-yl]-N-[3-(2-methylamino-thiazol-4-yl)-phenyl]-acetamide] | 1.29
23 | C=C(CN1C(=O)N(CC(=O)Nc2cccc(CC(=O)O)c2)N=C(C2CCCCC2)c2ccccc21)C(C)(C)C [Example 152, (3-{2-[1-(2-tert-Butyl-allyl)-5-cyclohexyl-2-oxo-1,2-dihydro-3H-1,3,4-benzotriazepin-3-yl]-acetylamino}-phenyl)-acetic acid] | 50.1
24 | O=C(CN1N=C(C2CCCCC2)c2ccccc2N(CC(=O)C2CCCC2)C1=O)Nc1cccc(-c2nnn[nH]2)c1 [Example 125, 2-[5-Cyclohexyl-1-(2-cyclopentyl-2-oxo-ethyl)-2-oxo-1,2-dihydro-3H-1,3,4-benzotriazepin-3-yl]-N-[3-(2H-tetrazol-5-yl)-phenyl]-acetamide] | 4.37
25 | CC(C)(C)C(=O)CN1C(=O)N(CC(=O)Nc2ccccn2)N=C(C2CCCCC2)c2ccccc21 [Example 63, 2-[5-Cyclohexyl-1-(3,3-dimethyl-2-oxo-butyl)-2-oxo-1,2-dihydro-3H-1,3,4-benzotriazepin-3-yl]-N-pyridin-2-yl-acetamide] | 661
